Data taken from the supplement of paper PMC10307832.

Assays:
[1] = compound: CC1(COc2ccc3c(c2)ncn3-c2ccc3cccc(N4CCC(N)CC4)c3n2)COC1 [Crenolanib] + CCNC(=O)c1noc(-c2cc(C(C)C)c(O)cc2O)c1-c1ccc(CN2CCOCC2)cc1 [Luminespib] (partner 0.01 µM); assay: relative viability (nuclei count vs DMSO), 5 days (fraction); higher = more cells survive
Summary of the method: (§1)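 The day after seeding in 1536-well plates, lung cancer cell lines were treated by pin tool with a single drug, or with a fixed anchor-drug dose together with five library-drug doses (not always all listed) in √10 steps. After 5 days, a combined fix-and-stain solution (final 0.05% Triton X-100, 1% formaldehyde, 1 ug/ml Hoechst) was added. Nuclei counted on 4× images gave relative viability as treated counts over vehicle counts, reported as the median of duplicate plates.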

[2] = compound: CC1(COc2ccc3c(c2)ncn3-c2ccc3cccc(N4CCC(N)CC4)c3n2)COC1 [Crenolanib] + Cc1nc(Nc2ncc(C(=O)Nc3c(C)cccc3Cl)s2)cc(N2CCN(CCO)CC2)n1 [Dasatinib] (partner 0.075 µM); assay: as above
Summary of the method: as §1

Cell Line | relative viability ([1]; first compound 0.01 µM) | relative viability ([1]; first compound 0.03162 µM) | relative viability ([1]; first compound 0.1 µM) | relative viability ([1]; first compound 0.3162 µM) | relative viability ([1]; first compound 1 µM) | relative viability ([2]; first compound 0.01 µM) | relative viability ([2]; first compound 0.03162 µM) | relative viability ([2]; first compound 0.1 µM) | relative viability ([2]; first compound 0.3162 µM) | relative viability ([2]; first compound 1 µM)
NCI-H522 | 1.01 | 0.993 | 1.15 | 1.17 | 1.21 | 0.987 | 1.01 | 0.899 | 0.854 | 0.975
HCC-366 |  |  |  |  |  | 0.655 | 0.662 | 0.593 | 0.648 | 0.519
A-427 | 0.84 | 0.828 | 0.916 | 1.01 | 0.816 | 0.693 | 0.723 | 0.699 | 0.688 | 0.64
NCI-H23 | 0.235 | 0.279 | 0.226 | 0.216 | 0.174 | 0.804 | 0.778 | 0.71 | 0.848 | 0.643
NCI-H1755 | 0.416 | 0.656 | 0.667 | 0.43 | 0.397 | 0.465 | 0.472 | 0.395 | 0.437 | 0.384
EPLC-272H | 0.371 | 0.574 | 0.366 | 0.168 | 0.319 | 0.35 | 0.349 | 0.317 | 0.391 | 0.532
PC-3 [JPC-3] | 0.806 | 0.761 | 0.676 | 0.742 | 0.71 | 0.989 | 0.974 | 0.974 | 1.12 | 1.06
NCI-H1975 | 0.337 | 0.22 | 0.182 | 0.269 | 0.185 | 0.412 | 0.348 | 0.352 | 0.395 | 0.408
HCC-44 | 1.26 | 0.98 | 1.05 | 0.771 | 0.784 |  |  |  |  | 
SK-MES-1 | 0.827 | 0.728 | 0.699 | 0.83 | 0.57 | 0.39 | 0.448 | 0.358 | 0.409 | 0.358
NCI-H727 | 0.353 | 0.376 | 0.264 | 0.428 | 0.376 | 0.348 | 0.364 | 0.338 | 0.347 | 0.49
RERF-LC-KJ | 1.31 | 1.28 | 1.04 | 1.31 | 1.18 | 0.81 | 0.961 | 0.933 | 0.956 | 0.733
NCI-H1623 | 0.582 | 0.41 | 0.457 | 0.633 | 0.357 | 0.55 | 0.515 | 0.548 | 0.558 | 0.504
LCLC-103H | 1.02 | 0.922 | 0.878 | 1.06 | 0.863 | 0.444 | 0.454 | 0.477 | 0.457 | 0.428
CAL-12T | 0.338 | 0.398 | 0.272 | 0.363 | 0.579 | 0.455 | 0.51 | 0.498 | 0.615 | 0.514
SK-LU-1 | 0.205 | 0.246 | 0.217 | 0.208 | 0.211 | 0.198 | 0.182 | 0.159 | 0.194 | 0.172
NCI-H1651 | 0.867 | 0.926 | 0.711 | 0.875 | 0.748 | 0.504 | 0.377 | 0.373 | 0.531 | 0.336

Cell Line | relative viability ([1]; first compound 0.01 µM) | relative viability ([1]; first compound 0.03162 µM) | relative viability ([1]; first compound 0.1 µM) | relative viability ([1]; first compound 0.3162 µM) | relative viability ([1]; first compound 1 µM) | relative viability ([2]; first compound 0.01 µM) | relative viability ([2]; first compound 0.03162 µM) | relative viability ([2]; first compound 0.1 µM) | relative viability ([2]; first compound 0.3162 µM) | relative viability ([2]; first compound 1 µM)
BEN | 0.644 | 0.257 | 0.425 | 0.528 | 0.32 | 0.281 | 0.256 | 0.363 | 0.345 | 0.323
EMC-BAC-2 | 1.31 | 1.17 | 1.17 | 1.45 | 1.18 | 0.369 | 0.312 | 0.315 | 0.313 | 0.307
LXF-289 | 0.657 | 0.772 | 0.617 | 0.722 | 0.711 | 0.194 | 0.228 | 0.253 | 0.237 | 0.229
ABC-1 |  | 0.655 | 0.666 | 0.47 | 0.611 | 0.566 | 0.718 | 0.538 | 0.608 | 0.564
NCI-H2170 | 0.741 | 0.568 | 0.761 | 1.02 | 0.672 | 0.697 | 0.569 | 0.591 | 0.598 | 0.641
NCI-H1355 | 0.741 | 0.777 | 0.65 | 0.721 | 0.665 | 0.733 | 0.704 | 0.681 | 0.718 | 0.488
NCI-H2405 | 0.786 | 0.83 |  | 0.641 | 0.594 | 0.225 | 0.214 |  | 0.181 | 0.196
NCI-H2009 | 1.04 | 1.08 | 1.06 | 1.11 | 0.982 | 0.323 | 0.297 | 0.257 | 0.294 | 0.227
NCI-H441 | 0.387 | 0.393 | 0.333 | 0.433 | 0.359 | 0.555 | 0.669 | 0.601 | 0.681 | 0.578
PC-14 | 0.126 |  | 0.154 | 0.118 | 0.146 | 0.289 | 0.262 | 0.259 | 0.263 | 0.266
HCC-15 | 0.276 | 0.408 | 0.355 | 0.315 | 0.302 | 0.645 | 0.678 | 0.66 | 0.701 | 0.545
NCI-H2126 | 0.922 | 0.958 | 0.869 | 0.857 | 0.588 | 0.595 | 0.635 | 0.604 | 0.74 | 0.616
NCI-H1563 | 0.552 | 0.499 | 0.531 | 0.517 | 0.478 | 0.452 | 0.41 | 0.472 | 0.464 | 0.452
NCI-H2342 | 0.822 | 0.701 | 0.779 | 0.77 | 0.807 | 0.338 | 0.304 | 0.307 | 0.338 | 0.316
NCI-H1915 | 0.787 | 0.875 | 0.757 | 0.857 | 0.803 | 0.306 | 0.271 | 0.304 | 0.294 | 0.223
ChaGo-K-1 | 0.595 | 0.612 | 0.655 | 0.655 | 0.68 | 0.6 | 0.579 | 0.617 | 0.585 | 0.604
NCI-H661 | 0.939 | 0.88 | 0.893 | 0.958 | 0.959 | 0.958 | 0.845 | 0.864 | 0.992 | 1.09
